Assay results from patent US9458176B2, “Tetrahydroimidazo(1,5-D)[1,4]oxazepine derivative” (Eisai R&D Management Co., Ltd., priority 2013, dated 2016).

Biological target: human mGluR2 (Homo sapiens (Human), UniProt Q14416)
Assay: [35S]GTPγS binding assay (Affinity to mGluR2)
Type: biochemical
Conditions: cell membrane fraction of HEK293 cells stably expressing human mGluR2, glutamic acid 10 μM
Procedure: (Preparation of Cell Membrane Fraction of HEK293 Cells Stably Expressing Human Metabotropic Glutamate Receptor 2 (mGluR2))
HEK293 cells stably expressing human mGluR2 and human glutamate transporter SLC1A3 were cultured in a Dulbecco's modified Eagle's medium with 10% fetal bovine serum (50 units/mL of penicillin, 50 μg/mL of streptomycin, 60 μg/mL of geneticin, 400 μg/mL of hygromycin B and 2 mM of glutamine) at 37° C. under 5% CO2. Confluent cell cultures were washed twice with PBS(−), and then scraped off with a cell scraper, and subjected to centrifugal separation at 4° C. and 1500 rpm for 5 minutes for collecting cells. The centrifuged sediment (cell pellet) was homogenized in a 20 mM HEPES buffer containing 10 mM EDTA (pH 7.4) by using sonicator and centrifuged at 4° C. and 1500×g for 30 minutes. The supernatant (soluble fraction) was subjected to the centrifugal separation at 4° C. and 40,000×g for 30 minutes, and thus, insoluble fraction was obtained. After additional centrifugally washing the obtained fraction with 20 mM HEPES buffer containing 10 mM EDTA (pH 7.4), the pellet was centrifugally suspended with a 20 mM HEPES buffer containing 0.1 mM EDTA, and the cell membrane fraction was obtained by the centrifugal separation at 4° C. and 40,000×g for 30 minutes. The thus obtained cell membrane fraction was suspended in a 20 mM HEPES buffer containing 0.1 mM EDTA in a protein concentration of 3 mg/mL, which was stored at −80° C.
([^35S]GTPγS Binding Assay)
The frozen cell membrane fraction prepared as described above was thawed before use, and the resultant was diluted with a buffer for a binding assay (final concentrations: 20 mM HEPES, 100 mM NaCl, 1 mM MgCl2, 3 μM GDP, 300 μg/mL saponin, 0.1% BSA). The compound of each example was added to a cell membrane fraction containing 1.8 to 3 μg/assay of membrane protein on a plate, followed by incubation at room temperature for 30 minutes. Thereafter, with glutamic acid (in a final concentration of 10 μM) added thereto, incubation was performed at room temperature for 15 minutes, and thereafter, [^35S]GTPγS (in a final concentration of 0.8 kBq) and 588 μg WGA-SPA beads were added thereto, followed by incubation at room temperature for 1 hour. After the incubation, the plate was subjected to the centrifugal separation at 2,500 rpm and room temperature, and then, membrane cell binding radioactivity was measured with a top count.
A [^35S]GTPγS binding amount obtained by performing the above-described reaction in the absence of glutamic acid was defined as nonspecific binding, and a difference from a [^35S]GTPγS binding amount obtained in the presence of glutamic acid was defined as specific binding. On the basis of ratios of inhibiting the specific binding at various concentrations of the compounds of the respective examples, inhibition curves were obtained. Concentrations of the compounds of the respective examples at which the specific [^35S]GTPγS binding amount was suppressed by 50% (IC50 values) were calculated on the basis of the inhibition curves and shown in Tables 8 and 9.

[1] = inhibition of specific [35S]GTPγS binding

Sequence of human mGluR2 (Q14416 19-872): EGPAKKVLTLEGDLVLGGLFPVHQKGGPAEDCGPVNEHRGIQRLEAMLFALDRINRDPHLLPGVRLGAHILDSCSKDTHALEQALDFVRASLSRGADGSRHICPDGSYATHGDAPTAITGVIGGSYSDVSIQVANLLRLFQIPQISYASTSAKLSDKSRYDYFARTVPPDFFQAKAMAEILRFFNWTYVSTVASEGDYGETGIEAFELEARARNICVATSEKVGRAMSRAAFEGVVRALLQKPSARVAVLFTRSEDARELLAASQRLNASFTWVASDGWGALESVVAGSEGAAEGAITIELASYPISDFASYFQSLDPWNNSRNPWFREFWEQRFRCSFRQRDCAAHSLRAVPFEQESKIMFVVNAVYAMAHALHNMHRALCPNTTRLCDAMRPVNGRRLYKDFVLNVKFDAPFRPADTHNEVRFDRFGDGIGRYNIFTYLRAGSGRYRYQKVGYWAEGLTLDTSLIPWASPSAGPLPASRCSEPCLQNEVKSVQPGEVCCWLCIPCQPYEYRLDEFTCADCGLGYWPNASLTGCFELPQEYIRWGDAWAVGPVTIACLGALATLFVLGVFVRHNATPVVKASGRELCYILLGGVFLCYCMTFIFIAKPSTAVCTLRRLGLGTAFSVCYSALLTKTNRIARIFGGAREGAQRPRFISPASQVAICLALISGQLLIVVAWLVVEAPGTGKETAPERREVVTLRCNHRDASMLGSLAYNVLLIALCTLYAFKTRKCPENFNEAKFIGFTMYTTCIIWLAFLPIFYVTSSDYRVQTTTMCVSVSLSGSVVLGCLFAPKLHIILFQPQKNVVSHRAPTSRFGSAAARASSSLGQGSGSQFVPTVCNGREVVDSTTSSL

IC50 [nM]	IC50 [1] [nM]	SMILES
1.1		CCOc1cc(-c2nc(-c3cc(C)nc(C)c3)c3n2C[C@@H](C)OCC3)ccc1C(F)(F)F [Example 82]
	19.8	Cc1cc(-c2nc(-c3ccc(OC(F)(F)F)c(CO)c3)n3c2CCO[C@H](C)C3)ccn1 [Example 230]
	10.5	Cc1cc(-c2nc(-c3ccc(OC(F)(F)F)c(F)c3)n3c2CCO[C@H](C)C3)cc(C)n1 [Example 147]
3.1		Cc1cc(-c2nc(-c3ccc(F)c(OCC4CCC4)c3)n3c2CCO[C@H](C)C3)cc(C)n1 [Example 98]
3.8		COc1cc(-c2nc(-c3cc(C)nc(C)c3)c3n2C[C@@H](CF)OCC3)ccc1C(F)(F)F [Example 29, (S)-1-(2,6-dimethylpyridin-4-yl)-6-(fluoromethyl)-3-(3-methoxy-4-(trifluoromethyl)phenyl)-5,6,8,9-tetrahydroimidazo[1,5-d][1,4]oxazepine]
25.2		Cc1cc(-c2nc(-c3ccc(Cl)c(C#N)c3)n3c2CCOCC3)cc(C)n1 [Example 111]
20.5		Cc1cc(-c2nc(-c3ccc(Cl)c(C)c3)n3c2CCO[C@H](C)C3)cc(C)n1 [Example 52]
	19.2	COc1ccc(-c2nc(-c3ccnc(C)c3)c3n2C[C@@H](C)OCC3)cc1OC(F)(F)F [Example 155]
	7.9	CCOc1cc(-c2nc(-c3ccnc(C)c3)c3n2C[C@@H](C)OCC3)ccc1CC [Example 219]
	26.7	CCc1ccc(-c2nc(-c3ccnc(C)c3)c3n2C[C@@H](C)OCC3)cc1OCC1CC1 [Example 221]
	50.4	Cc1cc(-c2nc(-c3ccc(C)c(OCC4CC4)c3)n3c2CCO[C@H](C)C3)ccn1 [Example 224]
25.4		Cc1cc(-c2nc(-c3ccc(F)c(OCC4CCC4)c3)n3c2CCOCC3)cc(C)n1 [Example 97]
12.1		COc1cc(-c2nc(-c3cc(C)nc(C)c3)c3n2CCOCC3)ccc1OC(F)F [Example 127]
21.9		COc1cc(-c2nc(-c3ccnc(C)c3)c3n2C[C@@H](C)OCC3)ccc1C [Example 55]
13		Cc1cc(-c2nc(-c3ccc(F)c(OCC4CC4)c3)n3c2CCO[C@H](C)C3)cc(C)n1 [Example 6, (R)-3-(3-cyclopropylmethoxy-4-fluorophenyl)-1-(2,6-dimethylpyridin-4-yl)-6-methyl-5,6,8,9-tetrahydroimidazo[1,5-d][1,4]oxazepine]
2.5		Cc1cc(-c2nc(-c3ccc(OC(F)(F)F)c(CF)c3)n3c2CCO[C@H](C)C3)ccn1 [Example 39, (R)-3-(3-(fluoromethyl)-4-(trifluoromethoxy)phenyl)-6-methyl-1-(2-methylpyridin-4-yl)-5,6,8,9-tetrahydroimidazo[1,5-d][1,4]oxazepine]
31.8		Cc1cc(-c2nc(-c3ccc(OC(F)F)c(F)c3)n3c2CCOCC3)cc(C)n1 [Example 119]
12.7		COc1cc(-c2nc(-c3cc(C)nc(CF)c3)c3n2C[C@@H](C)OCC3)ccc1C [Example 90]
34.9		Cc1cc(-c2nc(-c3ccc(F)c(OCC4CC4)c3)n3c2CCOCC3)cc(C)n1 [Example 94]
	16.1	Cc1cc(-c2nc(-c3ccc(OC(F)F)c(F)c3)n3c2CCO[C@H](C)C3)cc(C)n1 [Example 181]
	20.8	Cc1cc(-c2nc(-c3ccc(OC(F)F)c(C)c3)n3c2CCO[C@H](CF)C3)cc(C(F)F)n1 [Example 188]
	5.3	Cc1cc(-c2nc(-c3ccc(OC4CC4)c(Cl)c3)n3c2CCO[C@H](C)C3)cc(CF)n1 [Example 205]
4.1		Cc1cc(-c2nc(-c3ccc(OC4CC4)c(C)c3)n3c2CCO[C@H](CF)C3)cc(C)n1 [Example 22, (S)-3-(4-cyclopropoxy-3-methylphenyl)-1-(2,6-dimethylpyridin-4-yl)-6-(fluoromethyl)-5,6,8,9-tetrahydroimidazo[1,5-d][1,4]oxazepine]
	30.3	Cc1cc(-c2nc(-c3ccc(OC(F)F)c(CO)c3)n3c2CCO[C@H](C)C3)ccn1 [Example 237]
4.1		COc1cc(-c2nc(-c3ccnc(C)c3)c3n2C[C@@H](CF)OCC3)ccc1C(F)(F)F [Example 41, (S)-6-(fluoromethyl)-3-(3-methoxy-4-(trifluoromethyl)phenyl)-1-(2-methylpyridin-4-yl)-5,6,8,9-tetrahydroimidazo[1,5-d][1,4]oxazepine]
	5.2	COc1ccc(-c2nc(-c3cc(C)nc(C)c3)c3n2C[C@@H](CF)OCC3)cc1C [Example 245]
	17.8	COc1ccc(-c2nc(-c3cc(C)nc(C(F)F)c3)c3n2C[C@@H](C)OCC3)cc1C [Example 178]

IC50 [nM]	IC50 [1] [nM]	SMILES
61.7		Cc1cc(-c2nc(-c3ccnc(F)c3)c3n2CCOCC3)ccc1OC(F)(F)F [Example 115]
47.2		Cc1cc(-c2nc(-c3ccc(OC(F)F)c(F)c3)n3c2CCOCC3)ccn1 [Example 120]
	43.1	Cc1cc(-c2nc(-c3ccc(OC(F)(F)F)c(F)c3)n3c2CCO[C@H](CF)C3)cc(CO)n1 [Example 170]
21.2		Cc1cc(-c2nc(-c3ccc(F)c(Cl)c3)n3c2CCO[C@H](C)C3)cc(C)n1 [Example 138]
	72.5	Cc1cc(-c2nc(-c3ccc(Cl)c(OC(F)F)c3)n3c2CCOCC3)cc(C)n1 [Example 212]
	4.4	COc1cc(-c2nc(-c3cc(C)nc(CF)c3)c3n2C[C@@H](C)OCC3)ccc1C(F)(F)F [Example 200]
65.6		COc1cc(-c2nc(-c3cc(C)nc(C)c3)c3n2CCOCC3)ccc1C [Example 46]
	1.8	Cc1cc(-c2nc(-c3ccc(OC(C)C)c(C)c3)n3c2CCO[C@H](CF)C3)cc(C)n1 [Example 244]
	78.8	Cc1cc(-c2nc(-c3ccc(OCC(F)F)c(Cl)c3)n3c2CCOCC3)cc(C)n1 [Example 218]
33.3		Cc1cc(-c2nc(-c3ccc(C(F)(F)F)c(Cl)c3)n3c2CCO[C@H](C)C3)ccn1 [Example 132]
	2.4	COc1cc(-c2nc(-c3cc(C)nc(CF)c3)c3n2C[C@@H](CF)OCC3)ccc1C(F)(F)F [Example 201]
	22	Cc1cc(-c2nc(-c3ccc(C)c(OCC(C)C)c3)n3c2CCO[C@H](C)C3)cc(C)n1 [Example 227]
	15.1	COc1cc(-c2nc(-c3cc(C)nc(C(F)F)c3)c3n2C[C@@H](C)OCC3)ccc1C(F)F [Example 189]
40.9		COc1cc(-c2nc(-c3cc(C)nc(C)c3)c3n2CCOCC3)ccc1C(F)F [Example 121]
18.7		Cc1cc(-c2nc(-c3ccc(C(F)F)c(Cl)c3)n3c2CCOCC3)cc(C)n1 [Example 137]
	60.6	Cc1cc(-c2nc(-c3ccc(OCC4CC4)c(Cl)c3)n3c2CCOCC3)cc(C)n1 [Example 217]
	20.2	Cc1cc(-c2nc(-c3ccc(C(F)(F)F)cc3)n3c2CCO[C@H](C)C3)cc(C)n1 [Example 142]
3		Cc1cc(-c2nc(-c3ccc(OC4CC4)c(Cl)c3)n3c2CCO[C@H](C)C3)cc(C)n1 [Example 19, (R)-3-(3-chloro-4-cyclopropoxyphenyl)-1-(2,6-dimethylpyridin-4-yl)-6-methyl-5,6,8,9-tetrahydroimidazo[1,5-d][1,4]oxazepine]
	10.5	Cc1cc(-c2nc(-c3ccc(C)c(OCC4CC4)c3)n3c2CCO[C@H](C)C3)cc(C)n1 [Example 226]
	3	Cc1cc(-c2nc(-c3ccc(OC(F)(F)F)c(Cl)c3)n3c2CCO[C@H](C)C3)ccn1 [Example 153]
	19.3	Cc1cc(-c2nc(-c3ccc(C(F)(F)F)c(C)c3)n3c2CCO[C@H](CF)C3)cc(C)n1 [Example 186]
22.1		COc1cc(-c2nc(-c3cc(C)nc(C)c3)c3n2CCOCC3)ccc1C(F)(F)F [Example 122]
	22.2	Cc1cc(-c2nc(-c3ccc(C(F)F)c(Cl)c3)n3c2CCO[C@H](C)C3)cc(C)n1 [Example 146]
	18.5	COc1ccc(-c2nc(-c3cc(C)nc(C)c3)c3n2C[C@@H](CF)OCC3)cc1OC(F)(F)F [Example 175]
31.2		Cc1cc(-c2nc(-c3cccc(OC(F)(F)F)c3)n3c2CCO[C@H](C)C3)cc(C)n1 [Example 64]
21.9		Cc1cc(-c2nc(-c3ccc(Cl)c(F)c3)n3c2CCO[C@H](C)C3)cc(C)n1 [Example 56]
